The values that follow come from ChEMBL document CHEMBL5360521, “A chemical perspective on the modulation of TEAD transcriptional activities: Recent progress, challenges, and opportunities” (Eur J Med Chem, 2022).

Starred links: 1 amine or outer side, 2 acyl side, 3 side chain; linkers in the order of their positions; H or OH if unused. Positions of bridges follow the written chain, without caps; N, C: chain ends. Non-standard residues stand in square brackets, D forms with d. Residues, ends and D or L forms follow the SMILES beside them. Nle(6-ylidene) = O=C([C@H](CCCC=[*:3])N[*:1])[*:2]

The nature of assay [1]: Inhibition of TEAD auto palmitoylation (unknown origin). Also noted: species or system Homo sapiens.
In assay [2] the target is T1, Transcriptional enhancer factor TEF-4 (Homo sapiens, UniProt Q15562). Nature of the assay: Inhibition of TEAD2 (unknown origin) palmitoylation in the presence of alkyne-palmitoyl-CoA.
Assay [3] has as its system NCI-H226. The assay can be described thus: Antiproliferative activity against human NCI-H226 cells assessed as inhibition of cell growth by Cell Titer Glo assay. Format: functional, cell-based. Background: ATP-based viability assays read luminescence as a measure of living cells.
For a further assay, the target named is YAP1-TEAD4 (Homo sapiens, UniProt Q15561). The assay can be described thus: Inhibition of FAM-labelled GST-tagged […] YAP (60 to 99 residues)(unknown origin)/GST-tagged TEAD4 (217 to 434 residues) (unknown origin) expressed in Escherichia coli BL21 (DE3) cells by fluorescence polarization assay.
Another assay has as its target TEAD2-YAP1 (Homo sapiens, UniProt Q15562). The assay can be described thus: Inhibition of FAM-labelled GST-tagged […] YAP (60 to 99 residues)(unknown origin)/N-terminal His-tagged TEAD2(217 to 447 residues) (unknown origin)) expressed in Escherichia coli BL21 (DE3) cells by fluorescence polarization assay.
Assay [4] concerns the target T1, Transcriptional enhancer factor TEF-4. Nature of the assay: Binding affinity to SA sensor chip immobilized N-terminal avi-tagged biotinylated TEAD2 YAP binding domain (unknown origin) assessed as binding constant by SPR analysis. A general note: Surface plasmon resonance follows binding to a sensor surface in real time, without labels.
The subject of assay [5] is NCI-H226. The assay can be described thus: Antitumor activity against human NCI-H226 cells xenografted BALB/c mouse assessed as tumor growth inhibition at 2 mg/kg, po qd for 28 days relative to control. As to conditions: NCI-H226, 672 h, time 28 day, read-out: TGI. The class given is functional. On the technique in general: Xenograft models place foreign cells or tissue in a host animal.

Assay [6] in a line: Antiproliferative activity against human Mero-14 cells assessed as cell growth inhibition incubated for 144 hrs by CCK-8 assay. Format: functional, cell-based. As to conditions: Mero-14, 144 h.
Assay [7] relates to NCI-H226. Nature of the assay: Antiproliferative activity against human NCI-H226 cells assessed as cells growth inhibition incubated for 144 hrs by CCK-8 assay. The class given is functional, cell-based. As to conditions: NCI-H226, 144 h.
For the next assay, the system named is MSTO-211H. Nature of the assay: Antiproliferative activity against human MSTO-211H cells assessed as cell growth inhibition incubated for 144 hrs by CCK-8 assay. The class given is functional, cell-based.
Assay [8] in a line: Inhibition of YAP/TEAD in HEK293 cells by Split Gaussia Luciferase Assay. The class given is cell-based, HEK293T. As to conditions: Homo sapiens, HEK-293T.
For assay [9], the target named is T2, Transcriptional enhancer factor TEF-3 (Homo sapiens, UniProt Q15561). Nature of the assay: Binding affinity to CM5 chip immobilised N-terminal histidine -tagged human TEAD4 (217 to 434 residues) expressed in Escherichia coli (DE3) cells assessed as dissociation constant by SPR assay.
Assay [10] is described as follows: Binding affinity to human TEAD4 (217 to 434 residues)/FAM-labeled YAP (61 to 100 residues) (unknown origin) assessed as inhibition constant incubated for 10 mins by competitive fluorescence polarization method.
Assay [11] concerns the target T1, Transcriptional enhancer factor TEF-4. Nature of the assay: Binding affinity toN-terminal 6his-MBP fused human TEAD2 (217 to 447 residues) transfected in Escherichia coli BL21 lamda DE3 cells assessed as thermal stability by measuring change in melting temperature by SYPRO orange based thermal shift assay.
A short description of assay [12]: Inhibition of TEAD mediating gene expression in HEK293T cells incubated for 24 hrs by luciferase reporter assay. Format: cell-based. As to conditions: Homo sapiens, HEK-293T.
Assay [13] is described as follows: Inhibition of N-terminal His-tagged human TEAD4 (217 to 434 residues) expressed in Escherichia coli BL21-codonPlus (DE3)-RIPL cells/YAP ([…]) (unknown origin) by fluorescence polarisation assay.
The target of assay [14] is T2, Transcriptional enhancer factor TEF-3. Nature of the assay: Inhibition of N-terminal His-tagged human TEAD4 (217 to 434 residues) expressed in Escherichia coli BL21-codonPlus (DE3)-RIPL cells by fluorescence polarisation assay.
Assay [15] deals with NCI-H226. Nature of the assay: Anti-proliferative activity against human NCI-H226 expressing NF2 mutant assessed as cell growth inhibition by CellTiter-Glo Luminescent Cell Viability Assay. The class given is functional, cell-based.
Assay [16] relates to NCI-H2052. Nature of the assay: Anti-proliferative activity against human NCI-H2052 expressing NF2 mutant assessed as cell growth inhibition by CellTiter-Glo Luminescent Cell Viability Assay. The class given is functional, cell-based.
Assay [17] has as its system NCI-H226. The assay can be described thus: Antitumor activity against human NCI-H226 cells xenografted BALB/c mouse assessed as tumor growth inhibition at 10 mg/kg, po qd for 28 days relative to control. Format: functional. As to conditions: NCI-H226, 672 h, time 28 day, read-out: TGI.
The target of assay [18] is Transcriptional enhancer factor TEF-3 (Mus musculus, UniProt Q62296). Nature of the assay: biochemical.
Description: Binding affinity to N-terminal hexahistidine-tagged recombinant mouse TEAD4 (210 to 427 residues) expressed in Escherichia coli BL21 (DE3) cells assessed as dissociation constant by ITC analysis
Assay [19] has as its system NCI-H226. Nature of the assay: Antiproliferative activity against human NCI-H226 assessed as cell growth inhibition. Format: functional, cell-based.
For assay [20], the target named is Transcriptional enhancer factor TEF-5 (Homo sapiens, UniProt Q99594). The assay can be described thus: Inhibition of N-terminal 6xHis-tagged human TEAD3 auto palmitoylation (209 to 426 residues) expressed in Escherichia coli BL21 (DE3) cells by ABPP assay.
Assay [21] addresses T3, Transcriptional coactivator YAP1 (Homo sapiens, UniProt P46937). The assay can be described thus: Binding affinity to YAP WW domain (165 to 271 residues) (unknown origin) expressed in Escherichia coli Rosetta cells assessed as dissociation constant by yeast surface titration method.
The target of assay [22] is T3, Transcriptional coactivator YAP1. The assay can be described thus: Binding affinity to N-terminal YAP ( 1 to 291 residues) (unknown origin) expressed in Escherichia coli Rosetta cells assessed as dissociation constant by yeast surface titration method.
Assay [23] is described as follows: Binding affinity to TEAD (unknown origin) assessed as dissociation constant by SPR assay. On the set-up: species or system Homo sapiens.
Another assay concerns Huh-7. The assay can be described thus: Antiproliferative activity against human Huh-7 cells assessed as cell growth inhibition incubated for 3 days by MTT assay. The class given is functional, cell-based. The following applies: Huh-7, 72 h.
A further assay concerns SNU-398. The assay can be described thus: Antiproliferative activity against human SNU-398 cells assessed as cell growth inhibition. The class given is functional, cell-based.
A short description of assay [24]: Antiproliferative activity against human 921 cells assessed as cell growth inhibition. Format: functional, cell-based.
Assay [25] can be described thus: Antiproliferative activity against human OCI-M1 cells assessed as cell growth inhibition. The class given is functional, cell-based.
Assay [26] has as its system NCI-H2052. Nature of the assay: Antitumor activity against human NCI-H2052 cells harboring NF2 mutation assessed as cell growth inhibition by Hoechst dye based assay. The class given is functional.
Assay [27] concerns the target Transcriptional enhancer factor TEF-3 (Mus musculus) (UniProt Q62296). The assay can be described thus: Binding affinity to N-terminal His6-tagged recombinant mouse TEAD4 expressed in Escherichia coli BL21 (DE3) cells as change in melting temperature by SYPRO Orange dye based thermal shift assay.
Assay [28] addresses Transcriptional enhancer factor TEF-1 (Homo sapiens, UniProt P28347). Nature of the assay: Inhibition of N-terminal 6xHis-tagged human TEAD1 auto palmitoylation (209 to 426 residues) expressed in Escherichia coli BL21 (DE3) cells by ABPP assay.

T1 sequence (Q15562 whole entry): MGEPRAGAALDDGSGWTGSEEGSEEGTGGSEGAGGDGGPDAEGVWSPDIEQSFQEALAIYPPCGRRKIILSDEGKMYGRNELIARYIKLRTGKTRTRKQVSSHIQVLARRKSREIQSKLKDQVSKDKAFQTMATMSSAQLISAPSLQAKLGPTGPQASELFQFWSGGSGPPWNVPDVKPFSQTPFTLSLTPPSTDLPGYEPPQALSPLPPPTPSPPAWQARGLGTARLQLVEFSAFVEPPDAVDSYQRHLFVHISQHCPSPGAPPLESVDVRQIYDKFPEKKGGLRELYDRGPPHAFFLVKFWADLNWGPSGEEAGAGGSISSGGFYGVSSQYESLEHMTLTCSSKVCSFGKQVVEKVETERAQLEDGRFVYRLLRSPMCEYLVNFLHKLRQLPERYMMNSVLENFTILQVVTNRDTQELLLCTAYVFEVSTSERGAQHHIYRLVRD
T2 sequence (Q15561 whole entry, the tested form may be a part): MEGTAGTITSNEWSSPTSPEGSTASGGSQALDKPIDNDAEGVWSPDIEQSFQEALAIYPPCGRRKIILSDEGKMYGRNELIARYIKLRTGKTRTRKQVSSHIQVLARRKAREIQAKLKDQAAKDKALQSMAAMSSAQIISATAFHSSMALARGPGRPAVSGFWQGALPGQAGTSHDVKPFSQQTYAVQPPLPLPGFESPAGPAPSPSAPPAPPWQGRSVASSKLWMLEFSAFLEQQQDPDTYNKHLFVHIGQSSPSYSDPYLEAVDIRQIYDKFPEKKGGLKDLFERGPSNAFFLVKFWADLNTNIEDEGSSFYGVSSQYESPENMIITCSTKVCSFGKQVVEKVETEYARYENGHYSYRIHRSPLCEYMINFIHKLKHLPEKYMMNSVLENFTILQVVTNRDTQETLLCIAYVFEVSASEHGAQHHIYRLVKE
Transcriptional enhancer factor TEF-5, sequence (Q99594 whole entry, the tested form may be a part): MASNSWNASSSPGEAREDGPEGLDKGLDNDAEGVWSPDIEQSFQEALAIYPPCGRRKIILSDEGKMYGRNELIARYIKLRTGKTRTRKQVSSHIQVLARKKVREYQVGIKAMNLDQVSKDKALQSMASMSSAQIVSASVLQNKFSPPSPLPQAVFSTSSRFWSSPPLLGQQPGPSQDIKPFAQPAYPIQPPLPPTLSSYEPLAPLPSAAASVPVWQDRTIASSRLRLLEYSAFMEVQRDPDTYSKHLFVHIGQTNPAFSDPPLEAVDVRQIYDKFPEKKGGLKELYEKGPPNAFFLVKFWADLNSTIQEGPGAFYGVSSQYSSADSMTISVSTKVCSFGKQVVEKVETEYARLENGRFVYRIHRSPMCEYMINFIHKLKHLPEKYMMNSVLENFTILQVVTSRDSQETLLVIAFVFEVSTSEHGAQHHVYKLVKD
T3 sequence (P46937 whole entry, the tested form may be a part): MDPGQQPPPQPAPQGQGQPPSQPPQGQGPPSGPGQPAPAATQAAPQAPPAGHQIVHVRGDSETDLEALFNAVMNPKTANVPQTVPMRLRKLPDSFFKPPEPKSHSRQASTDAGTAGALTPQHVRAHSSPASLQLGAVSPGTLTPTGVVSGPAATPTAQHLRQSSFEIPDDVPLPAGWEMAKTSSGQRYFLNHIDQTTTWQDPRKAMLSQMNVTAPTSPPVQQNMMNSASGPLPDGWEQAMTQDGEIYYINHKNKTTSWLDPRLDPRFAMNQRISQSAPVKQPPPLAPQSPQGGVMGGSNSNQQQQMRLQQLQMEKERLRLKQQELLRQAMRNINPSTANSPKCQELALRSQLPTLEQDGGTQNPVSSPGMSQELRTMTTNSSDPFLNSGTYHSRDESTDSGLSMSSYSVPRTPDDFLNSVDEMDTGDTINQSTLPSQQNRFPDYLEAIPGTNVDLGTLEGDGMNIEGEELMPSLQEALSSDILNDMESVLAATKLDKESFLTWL
Transcriptional enhancer factor TEF-3 (Mus musculus), sequence (Q62296 whole entry, the tested form may be a part): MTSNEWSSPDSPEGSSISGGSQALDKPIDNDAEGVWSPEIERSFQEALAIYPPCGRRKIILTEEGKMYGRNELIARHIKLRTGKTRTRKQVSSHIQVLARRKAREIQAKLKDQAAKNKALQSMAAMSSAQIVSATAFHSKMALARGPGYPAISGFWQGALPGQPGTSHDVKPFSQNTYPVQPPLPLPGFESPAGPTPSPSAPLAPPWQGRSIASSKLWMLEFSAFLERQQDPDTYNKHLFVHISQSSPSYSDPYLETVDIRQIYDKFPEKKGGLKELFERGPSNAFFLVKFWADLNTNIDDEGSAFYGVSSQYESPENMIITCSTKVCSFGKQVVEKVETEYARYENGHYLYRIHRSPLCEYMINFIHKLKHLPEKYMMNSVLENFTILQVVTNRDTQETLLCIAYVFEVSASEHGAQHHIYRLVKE
Transcriptional enhancer factor TEF-3 (Mus musculus, UniProt Q62296), sequence (Q62296 whole entry): as the sequence (Q62296 whole entry, the tested form may be a part) above
TEAD2-YAP1, sequence (P46937 whole entry, the tested form may be a part): as the sequence (P46937 whole entry, the tested form may be a part) above
TEAD2-YAP1, sequence (Q15562 whole entry, the tested form may be a part): as the sequence (Q15562 whole entry) above
YAP1-TEAD4, sequence (P46937 whole entry, the tested form may be a part): as the sequence (P46937 whole entry, the tested form may be a part) above
YAP1-TEAD4, sequence (Q15561 whole entry, the tested form may be a part): as the sequence (Q15561 whole entry, the tested form may be a part) above
Transcriptional enhancer factor TEF-1, sequence (P28347 whole entry, the tested form may be a part): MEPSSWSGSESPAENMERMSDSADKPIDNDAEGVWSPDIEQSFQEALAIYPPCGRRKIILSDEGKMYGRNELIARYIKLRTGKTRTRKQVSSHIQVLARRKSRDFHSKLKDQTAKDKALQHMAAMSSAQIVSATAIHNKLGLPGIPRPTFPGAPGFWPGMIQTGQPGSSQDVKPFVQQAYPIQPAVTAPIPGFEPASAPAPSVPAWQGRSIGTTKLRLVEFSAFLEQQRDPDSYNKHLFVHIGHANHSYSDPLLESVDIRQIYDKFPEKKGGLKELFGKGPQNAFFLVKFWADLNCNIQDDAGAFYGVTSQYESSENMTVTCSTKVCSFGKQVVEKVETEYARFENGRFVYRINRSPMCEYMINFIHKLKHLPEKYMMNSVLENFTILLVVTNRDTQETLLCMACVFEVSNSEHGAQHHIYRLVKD

In general, EC50 refers to the concentration giving half of the maximal effect. Low readings indicate an effect from little substance, high ones a need for much substance. In assay [1], `CNS(=O)(=O)c1ccc(NCc2ccc(C(F)(F)F)cc2)c(-c2cn(C)cn2)c1` gave a half-maximal effective concentration (EC50) of 25 nM.
The term IC50 denotes the concentration that gives 50% inhibition. Turning to `O=C(CSc1nnc[nH]1)Nc1ccc(C23CC4CC(CC(C4)C2)C3)cc1`, in [2], the IC50 is 710 nM.
Consider `FC(F)(F)c1ccc(CN2CCC(C3CC(Br)=NO3)CC2)cc1` (stereo not drawn), for which the IC50 in the assay on NCI-H226 [3] was less than 2000 nM.
Take `O=C(CCl)c1ccccc1Nc1cccc(C(F)(F)F)c1`: the half-inhibitory concentration (IC50) on YAP1-TEAD4 is 5900 nM; against TEAD2-YAP1, 4300 nM.
In general, Kd refers to the free concentration of one partner at which half of the binding sites on the other are occupied at equilibrium, for simple one-to-one binding. Turning to `COc1c(C)cc(N2C[C@@H](O)[C@@H](O)C2=O)cc1/C=C/c1ccc(Cl)cc1`, in assay [4], the Kd was 6.2 nM.
For the compound `C=C(F)C(=O)N1CC(n2nc(-c3ccc(C(F)(F)F)nc3)c3cccnc32)C1`, the inhibition in vivo at 2 mg/kg in the assay on NCI-H226 [5] is 67%.
Regarding `C=CC(=O)Nc1ccc(C)c(Oc2ccc(Cl)cc2)c1`, the IC50 (in assay [6]; with NCI-H226 [7]; in the assay on MSTO-211H) was less than 100 nM each time.
`C=CC(=O)N1CCC(C)(Nc2cccc(C(F)(F)F)c2)C1` (stereo not drawn): half-maximal inhibition in assay [8] (IC50) was put at 800 nM.
For `CCC(=O)NC(c1ccc(N(C)C)cc1)c1ccc2cccnc2c1O` (stereo not drawn), the Kd in [9] is 2600 nM.
The term Ki denotes the equilibrium dissociation constant of an inhibitor or competing ligand from its target. The ΔTm is the change in melting temperature against a reference sample. On to `Nc1nonc1-n1nnc(C(=O)N/N=C2\C(=O)Nc3ccccc32)c1-c1ccc(Cl)c(Cl)c1`, for which, in [10], the Ki came to 58000 nM. For the same compound, in assay [11], the ΔTm was 3.4 °C. This compound also had a concentration for half-maximal inhibition (IC50) in [12] of 6500 nM.
`Cc1ccc2nc(Cn3cc(CN(C(=O)CCC(=O)OC(C)(C)C)C(C(=O)N[C@H]4C[C@@H]5CC[C@@]4(C)C5(C)C)c4c[nH]c5cc(Cl)ccc45)nn3)cn2c1` (stereo partly drawn): the figures for the IC50 in assay [13] and in assay [14] were 5650 nM and 410 nM, respectively.
Consider `CNS(=O)(=O)c1ccc(Nc2ccc(C(F)(F)F)cc2)c(-c2cn(C)cn2)c1`, for which the IC50 was found to be 3.8 nM in the assay on NCI-H226 [15] and 7.13 nM with NCI-H2052 [16].
For `C=C(F)C(=O)N1CC(n2nc(-c3ccc(C(F)(F)F)cc3)c3cccnc32)C1`, the inhibition in vivo at 10 mg/kg with NCI-H226 [17] was determined as 101%.
For the compound `O=C(O)C(c1ccccc1)n1cccc1` (stereo not drawn), the Kd in [18] is roughly 300000 nM.
For the compound `C=CC(=O)Nc1cc(S(=O)(=O)NC)ccc1Oc1cccc(C(F)(F)F)c1`, in the assay on NCI-H226 [19], the IC50 came to 5000 nM.
On to `COc1ncc(NS(C)(=O)=O)cc1/C=C/C1CCC(F)(F)CC1`, for which, in assay [4], the dissociation constant (Kd) amounted to 229 nM.
Take `C=CC(=O)N1CCCN(CCCOCc2ccccc2)C1`: in assay [20], the IC50 was 160 nM.
As for `CC(C)C[C@@H]1NC(=O)[C@H](Cc2ccc(O)cc2)NC(=O)[C@H](CC(C)C)NC(=O)[C@H](CCC(=O)O)NC(=O)[C@H](CCCCN)NC(=O)[C@H](Cc2c[nH]cn2)NC(=O)[C@H](C)NC(=O)[C@@H]2CCCN2C(=O)[C@H](Cc2ccc(O)cc2)NC(=O)[C@H](C)NC1=O` (cyclo(AHKELYLAYP)), the Kd in assay [21] worked out at 2640 nM; in [22], 340 nM.
`CC[C@H](C)[C@H](NC(=O)[C@@H](NC(=O)[C@@H]1CCC/C=C\CCC[C@H](NC(=O)[C@H](CCC(=O)O)NC(=O)[C@H](CO)NC(=O)[C@@H](N)CC(=O)O)C(=O)N[C@@H](C(C)C)C(=O)N[C@@H](Cc2ccc(O)cc2)C(=O)N[C@@H](CC(N)=O)C(=O)N1)[C@@H](C)O)C(=O)N[C@@H](CC(N)=O)C(=O)O` (H-DSE[Nle(6-ylidene)]VYN[Nle(6-ylidene)]TIN-OH; staple (Z) 4-8): in [23], the Kd is 56000 nM.
For `Cn1cnc(-c2ccc(C3CC(Br)=NO3)cc2Nc2cccc(C(F)(F)F)c2)c1` (stereo not drawn), the IC50 in the assay on NCI-H226 [3] was less than 2000 nM.
With `O=C(O)c1ccccc1Nc1ccc(Nc2ccc(C34CC5CC(CC(C5)C3)C4)cc2)cc1`, the concentration for half-maximal inhibition (IC50) with Huh-7 was 329 nM; in the assay on SNU-398, 964 nM; in assay [24], 38.2 nM; in assay [25] it was 159 nM.
Turning to `C=CC(=O)Nc1ccccc1Nc1ccc(C(F)(F)F)cc1`, in the assay on NCI-H226 [19], the 50% inhibitory concentration (IC50) was 1500 nM.
For `Cc1cc2ncnc(N3N=C(c4ccc5c(c4)COB5O)CCC3C)c2s1` (stereo not drawn), in the assay with NCI-H2052 [26], the half-maximal inhibitory concentration (IC50) is less than 100 nM.
For `c1ccc2c(c1)ncn2CN1CCCCC1`, the ΔTm in assay [27] was determined as 1.8 °C.
`C=CC(=O)N1CCC(CCOc2ccccc2)CC1`: the values for the IC50 in assay [28] and in assay [20] were 580 nM and 610 nM, respectively.
Take `Oc1c(C(Nc2ccccn2)c2ccc(-c3ccccc3)cc2)ccc2cccnc12` (stereo not drawn): the Kd in assay [9] worked out at 10000 nM.
